Reference: PMC8465942, “Cyano- and Ketone-Containing Selenoesters as Multi-Target Compounds against Resistant Cancers” (Cancers, 2021)
Like-named read-outs stand apart in the source and are kept apart here. Marks after values point to notes of the source that are not given here.

Tests used:
[1] = system: Colo 320/MDR-LRP human colonic adenocarcinoma cell line; assay: Cytotoxicity (MTT) on resistant Colo 320 cells; format: cell-based; details: for IC50: Homo sapiens, COLO 320, 24 h, MTT, read-out: Colo 320 (IC50 µM) Mean; for SI MRC-5/Colo 320: ratio IC50 non-tumour cells / IC50 cancer cells
Source text: (§1) Three cell lines have been used in this study: the doxorubicin-sensitive Colo 205 (CCL-222, ATCC, Manassas, VA, USA) human colonic adenocarcinoma cell line; the multidrug resistant Colo 320/MDR-LRP expressing P-gp (MDR1)-LRP (CCL-220.1, ATCC) human colonic adenocarcinoma cell line; and the MRC-5 human embryonal lung fibroblast cell line (CCL-171, ATCC). The colon adenocarcinoma cell lines were purchased from LGC Promochem (Teddington, UK), and the MRC-5 cell line was purchased from Sigma-Aldrich (Merck KGaA, Darmstadt, Germany). Their culture conditions are as follows: Colo 205 (CCL-222, ATCC) and Colo 320/MDR-LRP expressing P-gp (MDR1)-LRP (CCL-220.1, ATCC) human colon adenocarcinoma cell lines were cultured in RPMI 1640 medium, supplemented with 10% FBS, 2 mM L-glutamine, 1 mM Na-pyruvate, and […]. The cell lines were incubated at 37 °C, 5% CO2, and 95% air atmosphere. The semi-adherent human colon cancer cells were detached with a Trypsin-Versene (EDTA) solution for 5 min at 37 °C. MRC-5 human embryonal lung fibroblast cells were cultured in EMEM containing 4.5 g/L of glucose and supplemented with a non-essential amino acid mixture, a selection of vitamins, and 10% FBS. The cell lines were incubated at 37 °C, 5% CO2, and 95% air atmosphere.
(§2) The effects of increasing concentrations of the compounds on cell growth were tested in 96-well flat-bottomed microtiter plates. Moreover, 10^4 of human colonic adenocarcinoma cells in 100 μL of the medium (RPMI-1640) were added to each well, except for the medium control wells. The adherent human embryonic lung fibroblast cell line was seeded in the EMEM medium for 4 h before the assay. The two-fold serial dilutions of the compounds were made in a separate plate (0.19–100 μM), and then transferred to the plates containing the adherent corresponding cell line. Culture plates were incubated at 37 °C for 24 h. At the end of the incubation period, 20 μL of MTT (thiazolyl blue tetrazolium bromide) solution (from a 5 mg/mL stock solution) were added to each well. After incubation at 37 °C for 4 h, 100 μL of sodium dodecyl sulfate (SDS) solution (10% SDS in 0.01 M HCl) was added to each well, and the plates were further incubated at 37 °C overnight. Cell growth was determined by measuring the optical density (OD) at 540 nm (ref. 630 nm) with a Multiscan EX ELISA reader (Thermo Labsystems, Cheshire, WA, USA). Inhibition of cell growth was expressed as IC50 values, defined as the inhibitory dose that reduces the growth of the cells exposed to the tested compounds by 50%. IC50 values and the SD of triplicate experiments were calculated by using GraphPad Prism software version 5.00 for Windows, with a non-linear regression curve fit (GraphPad Software, San Diego, CA, USA; www.graphpad.com, accessed on 12 July 2021). Doxorubicin (from a 2 mg/mL stock solution, Teva Pharmaceuticals) was used as a positive control.
(§3) The selectivity indexes (SI) were calculated as the ratio of the IC50 value in the non-tumour cells and the IC50 in the cancer cell lines. The compound’s activity towards cancer cells is considered as strongly selective if the selectivity index (SI) value is higher than 6, moderately selective if 3 < SI < 6, slightly selective if 1 < SI < 3, and non-selective if SI is lower than 1 [16].

[2] = Cytotoxicity (MTT) on normal MRC-5 fibroblasts; format: cell-based; details: human
Source text: as §1, §2

[3] = system: Colo 205 human colonic adenocarcinoma cell line; assay: Cytotoxicity (MTT) on sensitive Colo 205 cells; format: cell-based; details: for IC50: Homo sapiens, COLO 205, 24 h, MTT, read-out: Colo 205 (IC50 µM) Mean; for SI MRC-5/Colo 205: ratio IC50 non-tumour cells / IC50 cancer cells
Source text: as §1, §2, §3

[4] = system: MDR Colo 320 adenocarcinoma cells; assay: Apoptosis induction (Annexin V-FITC / propidium iodide); format: cell-based, human; details: 20 µM
Procedure: The assay was carried out using an Annexin V-FITC Apoptosis Detection Kit Cat. No. PF 032 from Calbiochem (EMD Biosciences. Inc. La Jolla. CA), according to the manufacturer's instructions. […] The cell suspension was distributed into 1 mL aliquots (1 × 10^6 cells) into a 24-well microplate and incubated overnight at 37 °C, with 5% CO2. On the following day, the medium was removed and a fresh medium was added to the cells. The cells were incubated in the presence of Se-compounds for 3 h at 37 °C. […] After a 3 h induction period, the culture medium was removed, the cells were washed with PBS, and a fresh medium was added to the cells. The 24-well plates were incubated overnight at 37 °C, with 5% CO2. After the incubation, the supernatant was collected in a microfuge tube and 200 μL of 0.25 trypsin (Trypsin-Versene) was added to the wells until the cells detached from the surfaces of the wells. The cells were centrifuged at 2000× g for 2 min at room temperature, the supernatant was removed, and the cells were re-suspended in fresh serum-free medium. After this procedure, apoptosis assay was carried out according to the rapid protocol of the kit using Annexin V-FITC and propidium iodide staining. […] The data were analysed by FlowJo^TM software (BD Biosciences, San Jose, NJ, USA).

B16 (skin melanoma) = assay: Cytotoxicity on B16 cells; format: cell-based, murine; details: Mus musculus
Procedure: (§4) The activity of selenoesters was tested on several cancer cell lines, including HepG2 (hepatocellular carcinoma, CCL-23TM, ATCC); HeLa (cervical adenocarcinoma, CCL-2TM, ATCC); B16 (skin melanoma, CCL-6322TM, ATCC); and a non-cancerous cell line, HDF (human dermal fibroblasts, Sigma-Aldrich). HepG2, HeLa, B16, and HDF cell lines were cultivated in EMEM medium supplemented with 10% FBS, 2 mM L-glutamine, and 1% penicillin-streptomycin mixture. The HaCaT cell line was cultivated in DMEM medium supplemented with 10% FBS and 1% penicillin-streptomycin mixture. All of the cells were cultivated in a CO2 incubator (5% CO2, 37 °C). Twice per week, the cell lines were passaged according to a standardized protocol with a trypsin-EDTA solution.
as §3

[5] = system: HeLa (cervical adenocarcinoma); assay: Cytotoxicity on HeLa cells; format: cell-based; details: Homo sapiens
Procedure: as §4, §3

[6] = system: HepG2 (hepatocellular carcinoma); assay: Cytotoxicity on HepG2 cells; format: cell-based; details: Homo sapiens
Procedure: as §4, §3

[7] = system: resistant Colo 320 colon adenocarcinoma cells expressing the ABCB1 transporter; assay: Checkerboard combination assay with doxorubicin; format: cell-based, human; details: starting conc. 10 µM
Procedure: A checkerboard microplate method was applied to study the effect of drug interactions between the selenocompounds and the chemotherapeutic drug doxorubicin on resistant Colo 320 colon adenocarcinoma cells expressing the ABCB1 transporter. Results were expressed in terms of the combination index (CI) values at 50% growth inhibition (ED50), which were determined by using CompuSyn software to plot 4 or 5 data points for each ratio.
To perform the experiment, the dilutions of doxorubicin were made in a horizontal direction in 100 µL, and the dilutions of the Se-compounds were made vertically in the microtiter plate in a volume of 50 µL. The cells were re-suspended in the culture medium and distributed into each well in 50 µL portions containing 6000 cells. The plates were incubated for 72 h at 37 °C in a CO2 incubator. The cell growth rate was determined after MTT staining. At the end of the incubation period, 20 μL of MTT solution was added to each well. After incubation at 37 °C for 4 h, 100 μL of SDS was added to each well and the plates were further incubated at 37 °C overnight. The optical density (OD) was measured at 540/630 nm with the Multiscan EX ELISA reader.

[8] = system: HeLa (cervical adenocarcinoma); assay: Cytotoxicity on HeLa cells; format: cell-based, human; details: ratio IC50 non-tumour cells / IC50 cancer cells
[9] = system: HepG2 (hepatocellular carcinoma); assay: Cytotoxicity on HepG2 cells; format: cell-based, human; details: ratio IC50 non-tumour cells / IC50 cancer cells
HaCaT cell line = assay: Toxicity on HaCaT cells (IC10 used as dose); format: cell-based; details: Homo sapiens, concentration inhibiting 10% of the population, highest non-toxic concentration, read-out: Dose IC10
Procedure: as §4, with “solution. […]” for “solution.”
Wound healing activity of selenoesters was evaluated as the ability of the cells to migrate and close the gap created on the monolayer of human keratinocytes (HaCaT cell line). The tested substances were applied in the highest possible non-toxic concentration (IC10, concentration inhibiting 10% of the population). In general, ketone-selenoesters were more toxic (except K4 and K1) than cyano-selenoesters (except N4); therefore, they were applied at lower doses (0.17–0.30 µM) when compared to cyanoselenoesters (0.36–0.64 µM). Compounds K1, K4, and N4 were applied at a concentration of 0.30, 0.46, and 0.20 µM, respectively. As could be seen in Table 8, all ketone-selenoesters stimulated wound healing more effectively in comparison to both untreated control (p < 0.0000005) and allantoin (p < 0.00005). […] Only samples N1, N2, N4, and N7 closed effectively the damaged wound in 24 h, with the gap closure around 70%.

[10] = target: ABCB1 (P-glycoprotein) in Colo 320 colonic adenocarcinoma cells (Homo sapiens, UniProt P08183); assay: ABCB1 inhibition, rhodamine 123 accumulation by flow cytometry; details: 0.2 µM
Sequence of ABCB1 (P-glycoprotein) in Colo 320 colonic adenocarcinoma cells (P08183 whole entry): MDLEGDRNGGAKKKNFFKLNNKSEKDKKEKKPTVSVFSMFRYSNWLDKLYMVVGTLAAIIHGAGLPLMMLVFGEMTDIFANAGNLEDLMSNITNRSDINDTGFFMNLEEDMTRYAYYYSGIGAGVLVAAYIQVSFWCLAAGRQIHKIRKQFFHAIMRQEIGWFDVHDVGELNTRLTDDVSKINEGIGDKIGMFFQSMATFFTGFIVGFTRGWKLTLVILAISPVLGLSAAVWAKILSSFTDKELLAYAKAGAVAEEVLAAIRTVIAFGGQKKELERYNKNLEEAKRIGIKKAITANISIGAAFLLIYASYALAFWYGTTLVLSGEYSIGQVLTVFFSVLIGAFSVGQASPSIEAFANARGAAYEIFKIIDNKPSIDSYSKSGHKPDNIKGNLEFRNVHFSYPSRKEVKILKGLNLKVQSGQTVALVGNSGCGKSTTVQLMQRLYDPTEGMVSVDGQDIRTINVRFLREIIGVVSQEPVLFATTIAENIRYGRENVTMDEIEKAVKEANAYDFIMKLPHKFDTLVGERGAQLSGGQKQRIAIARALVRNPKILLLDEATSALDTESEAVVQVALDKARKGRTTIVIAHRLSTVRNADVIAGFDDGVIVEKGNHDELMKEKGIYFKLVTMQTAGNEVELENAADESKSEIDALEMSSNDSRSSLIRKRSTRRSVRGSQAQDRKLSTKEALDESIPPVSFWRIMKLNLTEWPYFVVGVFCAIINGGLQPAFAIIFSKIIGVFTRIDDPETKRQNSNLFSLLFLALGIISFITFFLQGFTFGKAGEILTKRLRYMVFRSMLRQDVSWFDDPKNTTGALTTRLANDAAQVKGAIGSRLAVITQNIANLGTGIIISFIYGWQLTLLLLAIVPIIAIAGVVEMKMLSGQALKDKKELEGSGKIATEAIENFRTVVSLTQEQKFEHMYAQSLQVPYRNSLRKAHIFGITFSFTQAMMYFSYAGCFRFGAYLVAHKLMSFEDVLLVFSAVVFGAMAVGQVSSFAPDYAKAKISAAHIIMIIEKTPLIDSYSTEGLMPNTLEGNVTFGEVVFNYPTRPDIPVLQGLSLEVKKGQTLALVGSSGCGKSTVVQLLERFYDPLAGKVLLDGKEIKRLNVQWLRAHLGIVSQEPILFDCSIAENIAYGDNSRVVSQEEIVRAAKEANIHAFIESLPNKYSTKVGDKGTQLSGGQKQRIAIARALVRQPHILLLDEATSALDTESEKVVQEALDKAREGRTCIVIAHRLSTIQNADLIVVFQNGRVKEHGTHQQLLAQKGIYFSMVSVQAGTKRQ
Procedure: The inhibition of the ABCB1 multidrug efflux pump ABCB1 by the tested compounds was evaluated using flow cytometry, measuring the retention of rhodamine 123 by ABCB1 (P-glycoprotein) in Colo 320 colonic adenocarcinoma cells. Briefly, the cell number of colonic adenocarcinoma cells were adjusted to 2 × 10^6 cells/mL, re-suspended in serum-free RPMI-1640 medium in the case of colonic adenocarcinoma cells, and distributed in 0.5 mL aliquots into Eppendorf centrifuge tubes. The tested compounds were added at different concentrations (0.2 and 2 µM; from 1 and 10 mM stock solutions, respectively), and the samples were incubated for 10 min at room temperature. Tariquidar was applied as the positive control (0.2 µM final concentration), and DMSO was used as the solvent control (at 2 v/v%). Next, 10 µL (5.2 µM final concentration) of the fluorochrome rhodamine 123 (Sigma, St. Louis, MO, USA) was added to the samples and the cells were incubated for 20 min at 37 °C. After the incubation period, the cells were washed twice and re-suspended in 0.5 mL PBS for analysis. The fluorescence of the gated cell population was measured with a Partec CyFlow® flow cytometer (Partec, Münster, Germany). The percentage of the mean fluorescence intensity was calculated for the treated MDR cells as compared with the untreated cells. The results were obtained from a representative flow cytometry experiment in which at least 20,000 individual cells of the overall population were evaluated for the rhodamine 123 retained inside the cells. The fluorescence activity ratio (FAR) was calculated based on the following equation, which relates the measured fluorescence values: FAR=Colo320treated / Colo320control/Colo205treated / Colo205control
The parameters evaluated from flow cytometry experiments were: Forward Scatter Count (FSC, provides information about cell size); Side Scatter Count (SSC, proportional to cell granularity or internal complexity); FL-1 (Mean fluorescence of the cells), and Fluorescence Activity Ratio (FAR), which was calculated by the equation given above.

SMILES: COc1cccc2c1C(=O)c1c(O)c3c(c(O)c1C2=O)C[C@@](O)(C(=O)CO)C[C@@H]3O[C@H]1C[C@H](N)[C@H](O)[C@H](C)O1 [Dox., doxorubicin, reference compound]
- IC50 [1]: 7.61 µM
- SI MRC-5/Colo 320 [1]: 0.36
- IC50 at 24 h ([2]; MRC-5 embryonal lung fibroblast cells, 24 h, MTT, read-out: MRC-5 (IC50 µM) Mean): 2.73 µM
- IC50 [3]: 3.46 µM
- SI MRC-5/Colo 205 [3]: 0.79

SMILES: c1ccc2c(c1)Nc1c(ccc3ccccc13)S2 [M627, 12H-benzo(α)phenothiazine, reference compound]
- Cell Death (%) Treated Sample-Untreated Sample ([4]; positive control): 0.00%
- Early Apoptosis (%) Treated Sample-Untreated Sample ([4]; positive control): 13.3%
- Late Apoptosis (%) Treated Sample-Untreated Sample ([4]; positive control): 36.1%
- Total Apoptotic Events (Early + Late, %) ([4]; positive control): 49.4%
- Apoptosis Quotient (%) ([4]; reference): 100%

SMILES: N#CC[Se]C(=O)c1cccc(C(F)(F)F)c1 [N5, Se-(Cyanomethyl) 3-(Trifluoromethyl)benzoselenoate]
- IC50 (B16 (skin melanoma)): 1.4 µM
- IC50 [5]: 2.5 µM
- IC50 [1]: 5.22 µM
- SI MRC-5/Colo 320 [1]: >6 *
- IC50 [6]: 9.8 µM
- Type of Interaction ([7]; ratio 1.2:1): Strong antagonism
- Type of Interaction ([7]; ratio 2.4:1): Strong antagonism
- Type of Interaction ([7]; ratio 4.8:1): Slight antagonism
- Type of Interaction ([7]; ratio 9.6:1): Additive effect
- Type of Interaction ([7]; ratio 19.2:1): Slight antagonism
- Type of Interaction ([7]; ratio 38.4:1): Moderate antagonism
- SI MRC-5/HeLa [8]: >6 *
- SI MRC-5/HepG2 [9]: >6 *
- IC50 at 24 h [2]: > 100 µM
- IC50 [3]: 2.1 µM
- SI MRC-5/Colo 205 [3]: >6 *
- IC10 (HaCaT cell line): 600 nM

SMILES: COc1cc2c(cc1OC)CN(CCc1ccc(NC(=O)c3cc(OC)c(OC)cc3NC(=O)c3cnc4ccccc4c3)cc1)CC2 [Tariquidar, reference compound]
- FSC (Forward Scatter Count) [10]: 1957
- SSC (Side Scatter Count) [10]: 1074
- FAR (fluorescence activity ratio) ([10]; rhodamine 123, FAR above 2 considered effective): 28.04
